IC50 data for ten compounds are collected here from patent publication US11414385B2, “Compounds and methods for treating, detecting, and identifying compounds to treat apicomplexan parasitic diseases” (The University of Chicago, priority 2015, dated 2022).

The test system of test [1] is P. falciparum strains D6, TM91-C235, W2, C2B. Nature of the test: Malaria SYBR Green I-Based Fluorescence (MSF) Assay. To be noted: Plasmodium falciparum. It counts as cell-based, Plasmodium falciparum. The procedure:
Testing of P. falciparum: D6 is a drug sensitive strain from Sierra Leone, C235 is a multi-drug resistant strain from Thailand, W2 is a chloroquine resistant strain from Thailand, and C2B has resistance to a variety of drugs including atovaquone.
D6 is a drug sensitive strain from Sierra Leone, C235 is a multi-drug resistant strain from Thailand, W2 is a chloroquine resistant strain from Thailand, and C2B has resistance to a variety of drugs including atovaquone. These assays were performed as described.
(§1) Compound activity against P. falciparum, a causative agent of malaria, was tested using the Malaria SYBR Green I—Based Fluorescence (MSF) Assay. This; microtiter plate drug sensitivity assay uses the presence of malarial DNA as a measure of parasitic proliferation in the presence of antimalarial drugs or experimental compounds based on modifications of previously described methods by Plouffe et al (20) and Johnson et al. As the intercalation of SYBR Green I dye and its resulting fluorescence is relative to parasite growth, a test compound that inhibits the growth of the parasite will result in a lower fluorescence.
Selected compounds were examined for activity against four strains of P. falciparum: D6 (CDC/Sierra Leone), a drug-sensitive strain readily killed by chloroquine, TM91-C235, a multi-drug resistant strain resistant to chloroquine, W2, a chloroquine resistant strain from Thailand, and C2B has resistance to a variety of drugs including atovaquone.
D6 is a drug sensitive strain from Sierra Leone, C235 is a multi-drug resistant strain from Thailand, W2 is a chloroquine resistant strain from Thailand, and C2B has resistance to a variety of drugs including atovaquone. These assays were performed using standard protocols.
as §1, with “known in the art.” for “by Plouffe et al (20) and Johnson et al.”, “fluorescence. Selected compounds were examined for activity against four strains of P. falciparum: D6 (CDC/Sierra Leone), a drugsensitive strain readily killed by chloroquine, TM91-C235, a multi-drug resistant strain resistant to chloroquine, W2, a chloroquine resistant strain from Thailand, and C2B has resistance to a variety of drugs including atovaquone.” for “fluorescence.”

The subject of test [2] is T. gondii tachyzoites (RH-YFP strain). As to the kind of experiment: In vitro challenge assay for Toxoplasma tachyzoites (RH-YFP in HFF, fluorescence). It counts as cell-based, Toxoplasma gondii. To be noted: Toxoplasma gondii; RH-YFP; read-out: Tachy IC50. The procedure: Human foreskin fibroblasts (HFF) were cultured on a flat, clear-bottomed, black 96-well plate to 90% to 100% confluence. IMDM (1×, [+] glutamine, [+] 25 mM HEPES, [+] Phenol red, 10% FBS [gibco, Denmark]) was removed from each well and replaced with IMDM-C (1×, [+] glutamine, [+] 25 mM HEPES, [−] Phenol red, 10% FBS)[Gibco, Denmark]). Type I RH parasites expressing Yellow Fluorescent Protein (RH-YFP) were lysed from host cells by double passage through a 27-gauge needle. Parasites were counted and diluted to 32,000/mL in IMDM-C. Fibroblast cultures were infected with 3200 tachyzoites of the Type I RH-YFP strain and returned to incubator at 37° C. for 1-2 hours to allow for infection. Diluted solutions of the compounds were made using IMDM-C, and 20 μl were added to each designated well, with triplicates for each condition. Controls included pyrimethamine/sulfadiazine (current standard of treatment), DMSO only, fibroblast only, and an untreated YFP gradient with 2 fold dilutions of the parasite. Cells were incubated at 37° C. for 72 hours. The plates were read using a fluorimeter (Synergy H4 Hybrid Reader, BioTek) To ascertain the amount of yellow fluorescent protein, in relative fluorescence units (RFU), as a measure of parasite burden after treatment. Compounds were not considered effective or pursued for further analysis if there were no signs of inhibition at 1 μM. Data was collected using Gen5 software and analyzed with Excel.
Protocol adapted from Fomovska, et. al. (18,19). Human foreskin fibroblasts (HFF) were cultured on a flat, clear-bottomed, black 96-well plate to 90% to 100% confluence. IMDM (1×, [+] glutamine, [+] 25 mM HEPES, [+] Phenol red, 10% FBS [gibco, Denmark]) was removed from each well and replaced with IMDM-C (1×, [+] glutamine, [+] 25 mM HEPES, [−] Phenol red, 10% FBS)[gibco, Denmark]). Type I RH parasites expressing Yellow Fluorescent Protein (RH-YFP) were lysed from host cells by double passage through a 27-gauge needle. Parasites were counted and diluted to 32,000/mL in IMDM-C. Fibroblast cultures were infected with 3200 tachyzoites of the Type I RH strain expressing Yellow Fluorescent Protein (RH-YFP) and returned to incubator at 37° C. for 1-2 hours to allow for infection (15). Various concentrations of the compounds were made using IMDM-C, and 20 μl were added to each designated well, with triplicates for each condition. Controls included pyrimethamine/sulfadiazine (current standard of treatment), 0.1% DMSO only, fibroblast only, and an untreated YFP gradient with 2 fold dilutions of the parasite. Cells were incubated at 37° C. for 72 hours. Plates were read using a fluorimeter (Synergy H4 Hybrid Reader, BioTek) to ascertain the amount of yellow fluorescent protein, in relative fluorescence units (RFU), as a measure of parasite burden after treatment. Data was collected using Gen5 software. IC50 was calculated by graphical analysis in Excel.
An initial screening assay of 10 μM, 1 μM, 100 nM, and 10 nM was performed. Compounds were not considered effective or pursued for further analysis if there were no signs of inhibition of tachyzoites at 1 μM. If compounds did appear to be effective at 1 μM, another experiment was conducted to assess effect at 1 μM, 500 nM, 250 nM, 125 nM, 62.5 nM, and 31.25 nM.
Protocol adapted from Fomovska, et. al. (Fomovska A, Huang Q, El Bissati K, Mui E J, Witola W H, Cheng G, et al. Novel N-Benzoyl-2-Hydroxybenzamide Disrupts Unique Parasite Secretory Pathway. Antimicrob Agents Chemother [Internet]. 2012 May [cited 2015 Jul. 8]; 56(5):2666-82; Fomovska A, Wood R D, Mui E, Dubey J P, Ferreira L R, Hickman M R, et al. Salicylanilide inhibitors of Toxoplasma gondii. J Med Chem. 2012 Oct. 11; 55(19):8375-91.). Human foreskin fibroblasts (HFF) were cultured on a flat, clear-bottomed, black 96-well plate to 90% to 100% confluence. […]

Setting [3] is: C2B strain, read-out: SYBR Green C2B IC50.
Setting [4] is: D6 strain, read-out: Pf D6 IC50.
[5] abbreviates: D6 strain, read-out: SYBR Green D6 IC50.
Setting [6] is: TM91C235 strain, read-out: SYBR Green C235 IC50.
[7] abbreviates: W2 strain, read-out: SYBR Green W2 IC50.

Structures are written as SMILES. Like-named read-outs stand apart in the source and are kept apart here.

As to `Cc1[nH]c2cc(-c3ccccc3)nn2c(=O)c1-c1ccc(Oc2ccc(OC(F)(F)F)cc2)cc1` [JAG015, 5-methyl-2-phenyl-6-(4-(4-(trifluoromethoxy)phenoxy)phenyl) pyrazolo[1,5-a]pyrimidin-7(4H)-one], the IC50 in test [1] (setting [3]) was more than 20000 nM; in test [1] (setting [4]), more than 20000 nM; in test [1] (setting [5]) it was more than 20000 nM; in test [1] (setting [6]) it was more than 20000 nM; in test [1] (setting [7]), more than 20000 nM; in test [2], more than 1000 nM.
Turning to `Cc1cc2[nH]c(C)c(-c3ccc(Oc4ccc(OC(F)(F)F)cc4)cc3)c(=O)n2n1` [JAG006, 2,5-dimethyl-6-(4 (4-(trifluoromethoxy)phenoxy)phenyl) pyrazolo[1,5-a]pyrimidin-7(4H)-one], the IC50 in test [1] (setting [4]) is 290 nM; in test [2], more than 1000 nM.
As to `Cc1[nH]c2ncnn2c(=O)c1-c1ccc(Oc2ccc(OC(F)(F)F)cc2)cc1` [MJM136, 5-methyl-6-(4-(4-(trifluoromethoxy)phenoxy)phenyl)-[1,2,4]triazolo[1,5-a]pyrimidin-7(4H)-one], the IC50 in test [1] (setting [3]) is 380 nM; in test [1] (setting [4]) it was 200 nM; in test [1] (setting [5]), 200 nM; in test [1] (setting [6]), 580 nM; in test [1] (setting [7]), 550 nM; in test [2], 1000 to 10000 nM.
As to `Cc1[nH]c2c(c(=O)c1-c1ccc(Oc3ccc(Cl)cc3)cc1)CCCC2` [JAG50, 3-(4-(4-chlorophenoxy)phenyl)-2-methyl-5,6,7,8-tetrahydroquinolin-4(1H)-one], the IC50 in test [1] (setting [4]) was 46.6 nM; in test [2], 55 nM.
Regarding `Cc1[nH]c2c(C#N)cnn2c(=O)c1-c1ccc(Oc2ccc(OC(F)(F)F)cc2)cc1` [JAG014, 5-methyl-7-oxo-6-(4-(4-(trifluoromethoxy)phenoxy)phenyl)-4,7-dihydropyrazolo[1,5-a]pyrimidine-3-carbonitrile], the IC50 in test [1] (setting [3]) is 920 nM; in test [1] (setting [4]) it was 710 nM; in test [1] (setting [5]), 710 nM; in test [1] (setting [6]), 1350 nM; in test [1] (setting [7]), 1270 nM; in test [2], more than 1000 nM.
With `CSc1nc2[nH]c(C)c(-c3ccc(Oc4ccc(OC(F)(F)F)cc4)cc3)c(=O)n2n1` [JAG013, 5-methyl-2-(methylthio)-6-(4-(4-(trifluoromethoxy)phenoxy)phenyl)-[1,2,4]triazolo[1,5-a]pyrimidin-7(4H)-one], the IC50 was 1390 nM in test [1] (setting [3]); 1310 nM in test [1] (setting [4]); 1310 nM in test [1] (setting [5]); 2600 nM in test [1] (setting [6]); 2350 nM in test [1] (setting [7]); more than 1000 nM in test [2].
`Cc1[nH]c2c(c(=O)c1-c1ccc(Oc3ccc(OC(F)(F)F)cc3)cc1)CCC(C(F)(F)F)C2` (centres unmarked) [JAG162, 7-Trifluromethyl-2-methyl-3(4-(4-trifluoromethoxyphenoxy)phenyl)-5,6,7,8-tetrahydroquinolin-4(1H)-one]: in test [2], the IC50 was found to be 500 nM.
Same read-out and setting: as for `Cc1c(-c2ccc(Oc3ccc(OC(F)(F)F)cc3)cc2)c(=O)c2c(n1C)CCCC2` [JAG023, 1,2-dimethyl-3-(4-(4-(trifluoromethoxy)phenoxy)phenyl)-5,6,7,8-tetrahydroquinolin-4(1H)-one], the figure is 1000 nM.
Consider `Cc1[nH]c2c(c(=O)c1-c1ccc(Oc3cccc(OC(F)(F)F)c3)cc1)CCCC2` [AS006/ JAG143, 2-methyl-3-(4 (3-(trifluoromethoxy)phenoxy)phenyl)-5,6,7,8-tetrahydroquinolin-4(1H)-one], for which the IC50 in test [2] fell in the range of 60 to 80 nM.
The same measure, in the same setting: as for `Cc1[nH]c2c(c(=O)c1-c1ccc(Oc3ccc(OC(F)(F)F)cc3)cc1)CC(C)CC2` (centres unmarked) [JAG106, 3(4-(4-Trifluoromethoxyphenoxy)phenyl)-2,6-dimethyl-5,6,7,8-tetrahydroquinolin-4(1H)-one], the figure is approximately 1000 nM.

For orientation: IC50 means the midpoint of a concentration-inhibition curve.
